This is an account of results in ChEMBL document CHEMBL1201862, “PubChem BioAssay data set” (2004).

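Where inhibition never reached the appropriate level, the endpoint shown equals the highest concentration tested. Otherwise, values were interpolated linearly from a five-concentration, 48-hour dose response in 96-well plates. The concentration for 50% growth inhibition is given as GI50.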 The source made the active and inactive calls. Cut-off read from the data, not from the text of the source: active = GI50 up to about 1.1 µM and inactive = higher.

Among the test systems are SK-MEL-28; SK-OV-3; UACC-62; KM12; SN12C; CAKI-1; SK-MEL-2; Malme-3M; HOP-92; LOX IMVI; UO-31; SF-268; SR; HOP-62; IGROV-1; NCI/ADR-RES; SK-MEL-5; COLO 205; OVCAR-5; OVCAR-8.
Holding throughout (test): growth of human tumour cells (NCI), 48 h

In the case of `COC1=CC2(CC(OC)=C1OC)OC21COc2ccccc2C1=O` (stereo not given), the GI50 is > 100 µM (inactive) with SK-MEL-28; > 100 µM (inactive) in the assay with SK-OV-3; 60.1 µM (inactive) in the assay on UACC-62; > 100 µM (inactive) with KM12; 47.2 µM (inactive) with SN12C; > 100 µM (inactive) in the assay with CAKI-1. For the same compound, the GI50 with SK-MEL-2 was 40.2 µM (inactive); in the assay with Malme-3M it was > 100 µM (inactive); with HOP-92, > 100 µM (inactive); in the assay with LOX IMVI, 50.5 µM (inactive); in the assay with UO-31, 5.16 µM (inactive); with SF-268, > 100 µM (inactive). The GI50 was 24.9 µM (inactive) in the assay on SR; > 100 µM (inactive) in the assay with HOP-62; > 100 µM (inactive) in the assay on IGROV-1; 85.7 µM (inactive) in the assay with NCI/ADR-RES; 43 µM (inactive) in the assay with SK-MEL-5; > 100 µM (inactive) with COLO 205. Moreover, the GI50 in the assay on OVCAR-5 and with OVCAR-8 was > 100 µM (inactive) throughout.
Regarding `O=C1c2c[nH]nc2C(c2ccccc2)N1c1ccccc1` (stereo not given), the GI50 in the assay on SK-MEL-28, with SK-OV-3, with UACC-62, in the assay with KM12, with SN12C and with CAKI-1 was > 10 µM (inactive) in each case. Moreover, the GI50 with SK-MEL-2, with Malme-3M, in the assay on HOP-92, in the assay on LOX IMVI, in the assay on UO-31 and in the assay with SF-268 was > 10 µM (inactive) in each case. In addition, the GI50 in the assay with SR, with HOP-62, in the assay on IGROV-1, with NCI/ADR-RES, with SK-MEL-5 and in the assay on COLO 205 was > 10 µM (inactive) each time. The GI50 in the assay on OVCAR-5 and in the assay with OVCAR-8 was > 10 µM (inactive) throughout.
As to `NCCCCC(N)C(=O)N1CCN(c2nc(N3CCCC3)c3nc(Cl)c(NCc4ccccc4)nc3n2)CC1` (stereo not given), the GI50 in the assay on SK-MEL-28 was 20.7 µM (inactive); with SK-OV-3, 20.2 µM (inactive); with UACC-62, 17.9 µM (inactive); in the assay with KM12, 21.8 µM (inactive); in the assay on SN12C it was 18.4 µM (inactive); in the assay with CAKI-1 it was 31 µM (inactive). Besides, the GI50 with SK-MEL-2 was 19 µM (inactive); in the assay with Malme-3M, 23 µM (inactive); in the assay with HOP-92 it was 10.3 µM (inactive); in the assay on LOX IMVI, 17.5 µM (inactive); with UO-31 it was 17.5 µM (inactive); with SF-268, 20 µM (inactive). The GI50 was 18.1 µM (inactive) in the assay with SR; 13.9 µM (inactive) with HOP-62; 14.1 µM (inactive) in the assay with IGROV-1; 44.6 µM (inactive) in the assay on NCI/ADR-RES; 18.1 µM (inactive) in the assay on SK-MEL-5; 17.4 µM (inactive) with COLO 205. In addition, the GI50 with OVCAR-5 is 19.1 µM (inactive); in the assay on OVCAR-8, 14 µM (inactive).
For `Cc1cc(-c2nc3cc(F)ccc3s2)ccc1NC(=O)[C@@H](N)CCCCN`, the GI50 was 18.9 µM (inactive) with SK-MEL-28; 8.26 µM (inactive) with SK-OV-3; 9.55 µM (inactive) with UACC-62; 1.3 µM (inactive) in the assay on KM12; 13 µM (inactive) in the assay on SN12C; 0.647 µM (active) with CAKI-1. Also, the GI50 is 2.89 µM (inactive) in the assay on SK-MEL-2; 17.4 µM (inactive) in the assay with Malme-3M; 13.4 µM (inactive) in the assay with HOP-92; 1.82 µM (inactive) in the assay with LOX IMVI; 3.29 µM (inactive) in the assay with UO-31; 6.75 µM (inactive) in the assay with SF-268. For the same compound, the GI50 is 0.802 µM (active) in the assay on SR; 3.13 µM (inactive) in the assay on HOP-62; < 0.0131 µM (active) in the assay with IGROV-1; 15.2 µM (inactive) with NCI/ADR-RES; 13.4 µM (inactive) with SK-MEL-5; 2.58 µM (inactive) with COLO 205. In addition, the GI50 in the assay on OVCAR-5 is 0.119 µM (active); with OVCAR-8 it was 4.82 µM (inactive).
Consider `C=C1CC[C@@H](CCC2CCC3(OC2)O[C@]2(O)CC[C@@]3(C)OC2(C)C)C(C)(C)[C@H]1C/C=C1\CCOC1=O` (stereo not given in full), for which the GI50 with SK-MEL-28 was 26.1 µM (inactive); in the assay on SK-OV-3 it was 20.4 µM (inactive); with UACC-62, 27 µM (inactive); in the assay on KM12, 16.2 µM (inactive); with SN12C, 16.6 µM (inactive); in the assay with CAKI-1 it was 35.1 µM (inactive). For the same compound, the GI50 with SK-MEL-2 was 17.5 µM (inactive); in the assay on Malme-3M it was 16.7 µM (inactive); with HOP-92 it was 10.5 µM (inactive); in the assay on LOX IMVI it was 0.131 µM (active); in the assay on UO-31 it was 30.3 µM (inactive); in the assay on SF-268, 27.2 µM (inactive). The GI50 in the assay on SR was 2.67 µM (inactive); in the assay with HOP-62, 32.1 µM (inactive); in the assay on IGROV-1, 18.5 µM (inactive); in the assay with NCI/ADR-RES, 1.78 µM (inactive); in the assay on SK-MEL-5 it was 0.0244 µM (active); in the assay on COLO 205, 16.3 µM (inactive). For the same compound, the figures for the GI50 with OVCAR-5 and with OVCAR-8 were > 56.1 µM (inactive) and 15.3 µM (inactive), respectively.
Regarding `O=[N+]([O-])c1cc([As](Br)c2ccc(O)c([N+](=O)[O-])c2)ccc1O`, the GI50 is 1.63 µM (inactive) in the assay on SK-MEL-28; 3.39 µM (inactive) in the assay with SK-OV-3; 1.47 µM (inactive) with UACC-62; 2 µM (inactive) in the assay on KM12; 1.65 µM (inactive) in the assay on SN12C; 1.7 µM (inactive) in the assay with CAKI-1. Also, the GI50 in the assay with SK-MEL-2 was 0.746 µM (active); in the assay on Malme-3M it was 0.632 µM (active); in the assay on HOP-92, 1.38 µM (inactive); in the assay with LOX IMVI, 1.48 µM (inactive); with UO-31, 1.61 µM (inactive); with SF-268, 2.14 µM (inactive). The GI50 was 0.383 µM (active) in the assay with SR; 1.91 µM (inactive) in the assay with HOP-62; 1.47 µM (inactive) in the assay on IGROV-1; 2.77 µM (inactive) in the assay on NCI/ADR-RES; 1.49 µM (inactive) in the assay with SK-MEL-5; 1.26 µM (inactive) with COLO 205. The GI50 with OVCAR-5 was 2.05 µM (inactive); in the assay on OVCAR-8 it was 1.79 µM (inactive).
With `CC1(C)CCCCCCC2CC2CCCCCC(C)(C)C1=O` (stereo not given), the GI50 was > 100 µM (inactive) in the assay with SK-MEL-28; > 100 µM (inactive) in the assay on SK-OV-3; > 100 µM (inactive) in the assay on UACC-62; 92.5 µM (inactive) in the assay with KM12; > 100 µM (inactive) with SN12C; > 100 µM (inactive) with CAKI-1. Besides, the GI50 with SK-MEL-2 was 40.6 µM (inactive); with Malme-3M, > 100 µM (inactive); with HOP-92, 62.5 µM (inactive); in the assay on LOX IMVI it was 19.8 µM (inactive); in the assay with UO-31, > 100 µM (inactive); with SF-268 it was > 100 µM (inactive). For the same compound, the GI50 was 0.787 µM (active) in the assay on SR; > 100 µM (inactive) in the assay with HOP-62; > 100 µM (inactive) in the assay with IGROV-1; 99.3 µM (inactive) with NCI/ADR-RES; 49.7 µM (inactive) in the assay with SK-MEL-5; 63.1 µM (inactive) in the assay on COLO 205. Also, the GI50 in the assay on OVCAR-5 and in the assay on OVCAR-8 was > 100 µM (inactive) throughout.
